BindingDB's records for doi:10.7270/Q2JQ0ZGP (Nmmlsc, 2010)

Biological target: 60S ribosomal protein L19-A (Saccharomyces cerevisiae (strain ATCC 204508 / S288c), UniProt P0CX82)
Assay: RPL19A GFP fusion protein, TOR pathway, Saccharomyces cerevisiae, dose response (AID 2740)

Sequence of 60S ribosomal protein L19-A (P0CX82 whole entry, the tested form may be a part): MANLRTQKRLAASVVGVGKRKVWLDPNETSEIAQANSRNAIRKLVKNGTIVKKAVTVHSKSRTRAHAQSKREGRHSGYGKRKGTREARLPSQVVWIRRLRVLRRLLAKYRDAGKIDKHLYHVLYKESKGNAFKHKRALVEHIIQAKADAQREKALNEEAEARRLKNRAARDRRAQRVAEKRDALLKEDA

| SMILES | EC50 |
| --- | --- |
| CS(=O)(=O)c1nc(-c2cccs2)cc(C(F)(F)F)n1 [MLS000044645] | > 33 µM |
| O=C1NC(=S)NC(=O)C1=Cc1ccc2c(c1)CCN2CCCCl [5-[[1-(3-chloropropyl)-2,3-dihydroindol-5-yl]methylidene]-2-sulfanylidene-1,3-diazinane-4,6-dione] | > 33 µM |
